We go through three compounds from publication PMC8597116 (Clinical Pharmacology in Drug Development, 2021).

The conditions of data set [1]: for MPR AUC0‐t (metabolite‐to‐parent ratio) / MPR AUCinf (metabolite‐to‐parent ratio) / MPR Cmax (metabolite‐to‐parent, 5‐HVLX‐gluc to viloxazine, ratio): adjusted for molecular weights; for AUC0‐t, geometric mean / AUCinf, geometric mean / Cmax, geometric mean: geometric least‐squares mean of log‐transformed values.
Data set [2] in a line: clinical. The conditions noted are these: human, plasma, oral.
In data set [3] the test system is CYP1A2. The note with it: cited from earlier work.
Data set [4] deals with CYP2B6. The note with it: read-out: CYP2B6 IC50; cited from earlier work.
In data set [5] the test system is CYP2D6. The conditions noted are these: read-out: CYP2D6 IC50; cited from earlier work.
The subject of data set [6] is CYP3A4/5. The conditions noted are these: read-out: CYP3A4/5 IC50; two values given; cited from earlier work.
Data set [7] relates to CYP2C8. The note with it: read-out: CYP2C8 IC50; cited from earlier work.
In data set [8] the test system is CYP2C9. The note with it: read-out: CYP2C9 IC50; cited from earlier work.
Data set [9] relates to CYP2C19. The conditions noted are these: read-out: CYP2C19 IC50; cited from earlier work.
In data set [10] the test system is CYP2D6. The conditions noted are these: cited from earlier work.
Data set [11] is described as follows: Steady-state plasma pharmacokinetics of paroxetine, healthy adults. It counts as in vivo, human.
Data set [12] can be described thus: Safety monitoring: treatment-related adverse events in healthy adults. It counts as in vivo, human. The note with it: n = 22 per treatment period.
The mark [13] stands for this setting: combination versus SPN‐812 alone.
Where [14] appears, read: paroxetine 20 mg QD coadministration.
Setting [15] is: day 13, paroxetine 20 mg once daily, mean ± SD.
The mark [16] stands for this setting: Combination (period 3), mean ± SD.
The mark [17] stands for this setting: SPN‐812 alone (period 1), 700 mg single dose, plasma, mean ± SD.
Setting [18] is: SPN‐812 alone (period 1), mean ± SD.
Where [19] appears, read: geometric LS mean ratio, period 3/period 1.

Several values for one entry are separate records, joined by “and”; a condition that tells them apart may be missing. Equal values may be shown once. Read-outs that look alike come from different tables or passages of the source.

On to `CCOc1ccccc1OCC1CNCCO1` (stereo not drawn) [Viloxazine, viloxazine], for which, in [1] (setting [13]), the “change (increase) in AUC / exposure with CYP2D6 inhibition by paroxetine” value was less than 35%. In addition, the “delay of median Tmax after the combination compared with SPN‐812 alone” value in data set [1] (setting [13]) is listed as “≈ 1 hour”. In data set [1] (setting [14]), the “increase in AUC0‐t after the combination versus SPN‐812 alone” value is listed as “under 35%”. In addition, the “increase in AUCinf after the combination versus SPN‐812 alone” value in data set [1] (setting [14]) is on record as “under 35%”. Besides, the “increase in Cmax after the combination versus SPN‐812 alone” value in data set [1] (setting [14]) was found to be 16%. The half-life – broadly, the time in which the quantity being followed falls by half – in data set [2] (700 mg) was 5.2 ± 2.3 h. For the same compound, the AUC (as a rule, concentration integrated over time) in [2] (AUC0‐t, Combination (period 3): SPN‐812 700 mg + paroxetine 20 mg QD, mean ± SD) turned out to be 112000 ± 23900 ng·h/mL. Also, the IC50 was 0.269 µM in data set [3] (read-out: CYP1A2 reversible inhibition IC50, reversible inhibition); 0.0436 µM in data set [3] (read-out: CYP1A2 time‐dependent inhibition IC50, after 30 minute preincubation with nicotinamide adenine dinucleotide phosphate); 184 µM in data set [4]; 141 µM in data set [5]; 221 µM and 352 µM in data set [6]; more than 1010 µM in [7]. Further, the IC50 in data set [8] and in [9] was more than 1010 µM throughout. The “share of CYP2D6 in the formation of 5‐hydroxyviloxazine” value in [10] is recorded as less than 50%.
On to `Fc1ccc([C@@H]2CCNC[C@H]2COc2ccc3c(c2)OCO3)cc1` [Paroxetine, paroxetine], for which, in data set [11] (setting [15]), the Cavg is given as 29.6 ± 15.7 ng/mL and the “Cmin,ss” value stood at 22.3 ± 13.4 ng/mL. In addition, in data set [11] (human, plasma, oral, 20 mg), the exposure (AUC) was determined as 709 ± 377 ng·h/mL; the Cmax is 39 ± 19 ng/mL; the Tmax – broadly, the time at which the peak concentration occurs – came out at 6 h. In [12], the “Abnormal dreams (treatment‐related)” value was 0 n (%), the “Any adverse event (treatment‐related)” value is reported as 3 (13.6%) n (%), the “Decreased appetite (treatment‐related)” value is 0 n (%) and the “Diarrhea (treatment‐related)” value is listed as 3 (13.6%) n (%). Further, in [12], the “Dysgeusia (treatment‐related)” value is recorded as 0 n (%), the “Palpitations (treatment‐related)” value was 0 n (%) and the “Somnolence (treatment‐related)” value is 0 n (%).
Consider `CCOc1ccc(O[C@@H]2O[C@H](C(=O)O)[C@@H](O)[C@H](O)[C@H]2O)cc1OCC1CNCCO1` (stereo partly drawn) [5‐HVLX‐gluc, 5‐hydroxyviloxazine glucuronide], for which, in data set [1] (setting [16]), the “MPR AUC0‐t (metabolite‐to‐parent ratio)” value is 0.31 ± 0.08 (25.2%); the “MPR AUCinf (metabolite‐to‐parent ratio)” value is reported as 0.31 ± 0.08 (25.1%); the “MPR Cmax (metabolite‐to‐parent, 5‐HVLX‐gluc to viloxazine, ratio)” value is 0.33 ± 0.06 (19.2%). In addition, in data set [1] (Combination (period 3)), the “AUC0‐t, geometric mean” value is reported as 60.1; the “AUCinf, geometric mean” value worked out at 60.3; the “Cmax, geometric mean” value turned out to be 2.8. Also, in data set [1] (setting [17]), the “AUC0‐t” value was 70.5 ± 19.6 (27.8%) μg·h/mL, the AUCinf is 70.7 ± 19.7 (27.9%) μg·h/mL, the Cmax is recorded as 3.5 ± 0.8 (24.2%) μg/mL and the t1/2 is 5.7 ± 1.7 (29.6%) h. Besides, in [1] (setting [18]), the “MPR AUC0‐t (metabolite‐to‐parent ratio)” value is recorded as 0.49 ± 0.15 (31.1%); the “MPR AUCinf (metabolite‐to‐parent ratio)” value is 0.48 ± 0.15 (31.5%); the “MPR Cmax (metabolite‐to‐parent, 5‐HVLX‐gluc to viloxazine, ratio)” value is given as 0.47 ± 0.12 (27.4%). Further, in [1] (SPN‐812 alone (period 1)), the “AUC0‐t, geometric mean” value is reported as 67.8; the “AUCinf, geometric mean” value was found to be 67.9; the “Cmax, geometric mean” value is 3.4. Further, the “delay of median Tmax after the combination compared with SPN‐812 alone” value in data set [1] (setting [13]) is “≈ 3 hour”. For the same compound, in data set [1] (setting [19]), the “AUC0‐t ratio, combination/SPN‐812 alone (relative bioavailability)” value is 88.75% and 88.8%; the “AUCinf ratio, combination/SPN‐812 alone (relative bioavailability)” value is 88.77% and 88.8%; the “Cmax ratio, combination/SPN‐812 alone (relative bioavailability)” value was 83.05% and 83.1%. In [1] (setting [14]), the “decrease in AUC0‐t after the combination versus SPN‐812 alone” value is 12%, the “decrease in AUCinf after the combination versus SPN‐812 alone” value stood at 12% and the “decrease in Cmax after the combination versus SPN‐812 alone” value was found to be 17%.
